In PMC11397035, “In Vitro and In Silico Analysis of PTP1B Inhibitors from Cleistocalyx operculatus Leaves and Their Effect on Glucose Uptake” (Nutrients, 2024):
“Also recorded” adds a separate entry of the source. Read-outs that look alike come from different tables or passages of the source.

Legend:
PTP1B [1] = molecular target: T1, PTP1B (Homo sapiens, UniProt P18031); test: In vitro PTP1B inhibition assay (p-NPP substrate); assay type: biochemical
T1 construct: purchased Enzo Life Sciences Inc
T1 sequence (P18031 1-435): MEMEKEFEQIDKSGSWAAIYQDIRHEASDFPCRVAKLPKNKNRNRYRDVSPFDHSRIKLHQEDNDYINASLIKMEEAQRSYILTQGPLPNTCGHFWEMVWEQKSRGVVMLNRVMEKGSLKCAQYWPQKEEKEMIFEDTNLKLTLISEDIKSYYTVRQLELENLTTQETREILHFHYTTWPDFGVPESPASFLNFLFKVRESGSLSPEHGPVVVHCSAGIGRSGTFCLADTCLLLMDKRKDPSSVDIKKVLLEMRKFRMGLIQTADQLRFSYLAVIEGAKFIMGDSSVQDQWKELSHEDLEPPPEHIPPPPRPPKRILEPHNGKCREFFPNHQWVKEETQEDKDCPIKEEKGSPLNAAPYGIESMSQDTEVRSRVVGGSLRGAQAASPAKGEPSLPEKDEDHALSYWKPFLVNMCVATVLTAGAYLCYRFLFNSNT
Protocol: PTP1B enzyme inhibition activity was assessed following a previously described protocol. […] It was followed by incubation at 37 °C for 30 min. After that, 10 μL of 10 M NaOH was added to quench the reaction. […] The non-enzymatic reaction of the substrate was considered and accounted for by comparing data to a control experiment without the PTP1B enzyme. IC50 values were calculated using non-linear regression in GraphPad Prism 10 (GraphPad Software, Inc., San Diego, CA, USA), based on triplicate experiments.

3T3-L1 adipocytes [2] = test: Glucose uptake using the 2-NBDG probe in differentiated 3T3-L1 adipocytes; assay type: cell-based; settings: 1 h; for glucose uptake (2-NBDG) stimulatory effect: 20 μM; for concentration-response of glucose uptake stimulation: 5, 10, and 20 μM
Protocol: 3T3-L1 fibroblasts were cultured in DMEM (HyClone, Logan, UT, USA) supplemented with 10% calf serum, 100 U/mL penicillin, and 100 μg/mL streptomycin from Gibco (Grand Island, NY, USA). The cells were incubated at 37 °C with 5% CO2. Cells were differentiated after treatment with DMEM enriched with 10% fetal bovine serum (FBS) (HyClone, Logan, UT, USA), 1 μM dexamethasone (Sigma, St. Louis, MO, USA), 520 μM 3-isobutyl-1-methylxanthine (Sigma, St. Louis, MO, USA), and 1 μg/mL insulin (Roche, Mannheim, Germany). After 48 h, the media were changed with fresh DMEM containing 10% FBS, 1 μg/mL insulin, 100 U/mL penicillin, and 100 μg/mL streptomycin. Every 48 ours, the media were replaced until the induction of adipogenesis. Intracellular lipid droplets appeared after 4 to 6 days of incubation.
In vitro experiments measured glucose uptake in 3T3-L1 adipocytes using 2-NBDG, a fluorescent glucose derivative (Invitrogen, Eugene, OR, USA). Cells were cultured on 96-well plates in a glucose-free medium supplemented with 10% FBS. After incubation, cells were treated with either insulin (as a positive control) or the test compounds in the presence or absence of 2-NBDG and were further incubated for an additional hour. Cells were washed with cold phosphate-buffered saline (PBS). The 2-NBDG fluorescence was quantified by measuring the signal intensity at excitation/emission wavelengths of 450/535 nm using a SpectraMax Gemini XPS fluorescence microplate reader (Molecular Devices, San Jose, CA, USA). For cellular transport studies involving 2-NBDG, 3T3-L1 adipocytes were grown on sterilized glass coverslips in a glucose-free medium containing 10% FBS for 24 h. After treatment with 2-NBDG, cells were washed with cold PBS. Fluorescent images were obtained with an Olympus IX 70 fluorescence microscope (Olympus Corporation, Tokyo, Japan) to quantify the cellular transport of 2-NBDG.

PTP1B [3] = molecular target: T1, PTP1B; test: Kinetic analysis with PTP1B (Lineweaver–Burk and Dixon plots); assay type: biochemical; settings: for Ki: determined by Dixon plot interpretation; for Inhibition Type: determined by Lineweaver–Burk plots
Protocol: Reaction velocity was measured at different concentrations of tested compounds for kinetic analysis. The tested compounds or DMSO were preincubated with the enzyme and buffer solution at 37 °C for 2 min, followed by adding 50 μL of substrate (p-NPP) at different concentrations. The initial reaction velocities were monitored at 37 °C at 405 nm for 15 min. The kinetic reaction slopes were calculated based on the absorbance increments observed between 2 and 10 min (within the linear range). GraphPad Prism 10 (GraphPad Software, Inc., San Diego, CA, USA) was used to graph the double reciprocal Lineweaver–Burk and Dixon plots.

[4] = test system: pre-diabetic male Sprague Dawley rats; design: method as in PMID 29596390; settings: pre-diabetic male Sprague Dawley rats ref 44; cited from earlier work
3T3-L1 adipocytes [5] = test system: 3T3-L1 adipocytes; design: method as in PMID 27765349; settings: cited from earlier work
[6] = 50% PTP1B inhibitory effect, mean ± S.E.M. of triplicate experiments, six concentrations, read-out: IC50

Row | Structure (SMILES) | IC50 (PTP1B [1]; [6]) [µM] | PTP1B inhibitory activity (in words) (PTP1B [1]) | glucose uptake (2-NBDG) stimulatory effect (3T3-L1 adipocytes [2]) | other results
1 | C=C(CO)C1CCC2(C(=O)OC)CCC3(C(=O)O)C(CCC4C5(C)CCC(O)C(C)(C)C5CCC43C)C12 (centres unmarked) [Compound 1, Cleistocalyxic acid L] | > 20 | – | – | –
2 | C=C(C)C1CCC2(C(=O)OC)CCC3(C(=O)O)C(CCC4C5(C)CCC(O)C(C)(CO)C5CCC43C)C12 (centres unmarked) [Compound 2, Cleistocalyxic acid M] | > 20 | – | – | –
3 | C=C1CCC23CCC4(C)C5(C)CCC6C(=C)C(O)C(O)CC6(C)C5C5OC5C4(OC2=O)C3C1C (centres unmarked) [Compound 3, Cleistocalyxolide C] | > 20 | reduced inhibitory effects | low glucose uptake stimulation | –
4 | C=C(C)[C@@H]1CC[C@]2(C(=O)OC)CC[C@]3(C(=O)O)C(CCC4[C@@]5(C)CC[C@H](O)C(C)(C)C5CC[C@]43C)C12 (some centres unmarked) [Compound 4, melaleucic acid 28-O-methyl ester] | 8.7 ± 0.6 | – | – | –
5 | C=C(C)[C@@H]1CC[C@]2(C(=O)O)CC[C@]3(C)[C@H](CC[C@@H]4[C@@]5(C)CC[C@H](O)C(C)(C)[C@@H]5CC[C@]43C)[C@@H]12 [Compound 5, betulinic acid] | 2.2 ± 0.1 | significant inhibitory activity | – | –
6 | C=C(C)[C@@H]1CC[C@]2(C(=O)O)CC[C@]3(C)[C@H](CC[C@@H]4[C@@]5(C)C[C@@H](O)[C@H](O)C(C)(C)[C@@H]5CC[C@]43C)[C@@H]12 [Compound 6, alphitolic acid] | 4.1 ± 0.2 | strong PTP1B inhibitory activities | showed glucose uptake stimulatory effects; also recorded: particularly potent glucose uptake stimulatory effects | Ki (PTP1B [3]): 2.8 ± 0.4 µM; Inhibition Type (PTP1B [3]): non-competitive inhibitor of PTP1B; concentration-response of glucose uptake stimulation (3T3-L1 adipocytes [2]): dose dependent
7 | C=C1[C@@H](O)[C@H](O)C[C@]2(C)[C@H]3[C@@H]4O[C@@H]4[C@]45OC(=O)[C@@]6(CC[C@@H](C)[C@H](C)[C@H]64)CC[C@@]5(C)[C@]3(C)CC[C@@H]12 [Compound 7, ulmoidol] | > 20 | reduced inhibitory effects | low glucose uptake stimulation | –
8 | CC1(C)CCC23CCC4(C)C5(C)CCC6C(C)(C)C(O)C(O)CC6(C)C5CC(O)C4(OC2=O)C3C1 (centres unmarked) [Compound 8, (2a, 3b, 12a)-trihydorxy-olean-28-oic acid 28,13-lactone] | > 20 | reduced inhibitory effects | low glucose uptake stimulation | –
9 | C[C@@H]1CC[C@]2(C(=O)O)CC[C@]3(C)C(=CCC4[C@@]5(C)C[C@@H](O)[C@H](O)[C@@](C)(CO)C5CC[C@]43C)C2[C@]1(C)O (some centres unmarked) [Compound 9] | 4.4 ± 0.5 | strong PTP1B inhibitory activities | – | Ki (PTP1B [3]): 7.6 ± 1.2 µM; Inhibition Type (PTP1B [3]): non-competitive inhibitor of PTP1B
10 | C=C1C2CC[C@]3(C)C(CC=C4C5[C@](C(=O)O)(CC[C@@H](C)[C@@]5(C)O)CC[C@]43C)[C@@]2(C)C[C@@H](O)[C@@H]1O (stereo partly drawn) [Compound 10, 2α,3β,19α-trihydroxy-24-norurs-4(23),12-dien-28-oic acid] | 12.2 ± 0.3 | – | – | –
11 | C=C1[C@@H](O)[C@H](O)C[C@]2(C)[C@H]3CC=C4[C@@H]5[C@@H](C)[C@H](C)CC[C@]5(C(=O)O)CC[C@@]4(C)[C@]3(C)CC[C@@H]12 [Compound 11, ilekudinol B] | 14.1 ± 0.3 | – | – | –
12 | CC1(C)CC[C@]2(C(=O)O)CC[C@]3(C)C(=CC[C@@H]4[C@@]5(C)CC[C@H](O)C(C)(C)[C@@H]5CC[C@]43C)[C@@H]2C1 [Compound 12, oleanolic acid] | – | – | showed glucose uptake stimulatory effects | glucose homeostasis and progression of type 2 diabetes [4]: improve glucose homeostasis and prevent the progression of type 2 diabetes
13 | CC1(C)CC[C@]2(C(=O)O)CC[C@]3(C)C(=CC[C@@H]4[C@@]5(C)C[C@@H](O)[C@H](O)C(C)(C)[C@@H]5CC[C@]43C)[C@@H]2C1 [Compound 13, maslinic acid] | – | significant inhibitory activity | showed glucose uptake stimulatory effects; also recorded: particularly potent glucose uptake stimulatory effects | IC50 (PTP1B [1]): 1.28 ± 0.1 µM; Ki (PTP1B [3]): 3.2 ± 0.6 µM; Inhibition Type (PTP1B [3]): non-competitive inhibitor of PTP1B; concentration-response of glucose uptake stimulation (3T3-L1 adipocytes [2]): dose dependent; glucose uptake (3T3-L1 adipocytes [5]): increased glucose uptake; intracellular Ca2+ concentration (3T3-L1 adipocytes [5]): raised intracellular Ca^2+ concentration; lipid droplet and triglyceride levels (3T3-L1 adipocytes [5]): reduced lipid droplet and triglyceride levels
14 | CC1(C)CC[C@]2(CO)CC[C@]3(C)C(=CC[C@@H]4[C@@]5(C)CC[C@H](O)C(C)(C)[C@@H]5CC[C@]43C)[C@@H]2C1 [Compound 14, erythrodiol] | 3.6 ± 0.2 | – | – | –
15 | CC1(C)CC[C@]2(C(=O)O)CC[C@]3(C)C(=CC[C@@H]4[C@@]5(C)C[C@@H](O)[C@H](O)[C@@](C)(CO)[C@@H]5CC[C@]43C)[C@@H]2C1 [Compound 15, arjunolic acid] | 6.6 ± 0.6 | – | – | –
16 | CC1(C)CC[C@]2(C(=O)O)CC[C@]3(C)C(=CCC4[C@@]5(C)C[C@@H](O)[C@H](OC(=O)/C=C/c6ccc(O)cc6)C(C)(C)C5CC[C@]43C)C2C1 (some centres unmarked) [Compound 16, 3-O-(E)-p-coumaroyl maslinic acid] | 3.6 ± 0.4 | – | showed glucose uptake stimulatory effects | –
17 | CC1(C)CC[C@]2(C(=O)O)CC[C@]3(C)C(=CCC4[C@@]5(C)C[C@@H](O)[C@H](OC(=O)/C=C\c6ccc(O)cc6)C(C)(C)C5CC[C@]43C)C2C1 (some centres unmarked) [Compound 17, 3-O-(Z)-p-coumaroyl maslinic acid] | 2.6 ± 0.3 | strong PTP1B inhibitory activities; also recorded: significant inhibitory activity | showed glucose uptake stimulatory effects; also recorded: particularly potent glucose uptake stimulatory effects | Ki (PTP1B [3]): 2.7 ± 0.4 µM; Inhibition Type (PTP1B [3]): non-competitive inhibitor of PTP1B; concentration-response of glucose uptake stimulation (3T3-L1 adipocytes [2]): dose dependent
